This note sets out measurements from patent US11760744B2, “Fused ring compounds” (Genentech, Inc., priority 2018, dated 2023).

For data set [1], the target named is T1, K-Ras G12C (Homo sapiens, UniProt P01116, G12C). Nature of the data set: Western blot assay for in cell alkylation of K-Ras G12C (HCC1171 cells). Format: cell-based. Details: endogenous in cells; host or cells: HCC1171. The note with it: 18 hours at 37° C., 7 point dose response. In short, it runs like this: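 HCC1171 cells exposed to compounds for 18 h at 37° C, lysed, and analysed by SDS-PAGE/western blot with anti-K-Ras antibody and fluorescent secondary. Alkylated K-Ras separated by band shift; % alkylation = FI(alkylated)/(FI(alkylated)+FI(unalkylated))×100, IC50 from 7-point dose response.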
Target sequence in this assay (P01116 1-188 isoform P01116-2 G12C): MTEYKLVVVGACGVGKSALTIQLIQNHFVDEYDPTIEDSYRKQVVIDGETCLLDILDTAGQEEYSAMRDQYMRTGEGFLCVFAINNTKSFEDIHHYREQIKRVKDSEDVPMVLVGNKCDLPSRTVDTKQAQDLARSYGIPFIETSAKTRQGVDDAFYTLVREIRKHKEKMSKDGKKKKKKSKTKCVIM

Data set [2] has as its target T1, K-Ras G12C. Nature of the data set: K-Ras G12C, SOS1, Raf RBD HTRF assay for inhibition of GTP exchange. Format: biochemical. Details: K-Ras G12C (residues 2-188) and SOS1 (residues 564-1049) had N-terminal 6-His; made in house; host or cells: E. coli. The note with it: 18 hours preincubation with K-Ras G12C at room temperature; SOS1-mediated GTP exchange. In short, it runs like this: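 After 18 h at room temperature with compound, SOS1 (1.25 nM final) started exchange to GTP (150 μM final). C-Raf RBD, Tb-anti-FLAG and D2-anti-his (50, 1 and 12.5 nM) were then added. The 665/615 nm HTRF ratio was read after 2 h; buffer was HEPES/NaCl, 1 mM MgCl2, BSA, Tween-20 and DTT.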
Target sequence in this assay (P01116 2-188 isoform P01116-2 G12C): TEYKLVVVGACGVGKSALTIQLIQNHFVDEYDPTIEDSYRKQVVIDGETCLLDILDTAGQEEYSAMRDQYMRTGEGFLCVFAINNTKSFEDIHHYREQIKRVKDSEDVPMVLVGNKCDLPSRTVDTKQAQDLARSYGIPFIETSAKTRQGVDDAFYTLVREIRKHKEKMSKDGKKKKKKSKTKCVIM

Data set [3] is described as follows: Whole blood stability assay. In kind it is in vitro ADME. The note with it: fresh whole blood, drug 1 μM, 37° C., 180 minutes incubation. As to the method:
Whole Blood Stability Assay A whole blood stability assay was performed using fresh blood with a drug final concentration of 1 μM. The drug-blood mixtures were incubated at 37° C. for 180 minutes.

Consider `C=CC(=O)N1CCN(c2nc(OC[C@@H]3CCCN3C)nc3c2C[C@@H](C)[C@H](c2cccc4c2CCC4)C3)C[C@@H]1CC#N` (single isomer, unassigned) [Example 35d], for which the response on K-Ras G12C [1] was half-maximal at 0.98 nM (EC50). Also, at K-Ras G12C [2], the IC50 was under 10 nM. Further, in data set [3], the half-life at 1 μM was determined as 1.45 h.
On K-Ras G12C [1], `C=CC(=O)N1CCN(c2nc(OC[C@@H]3C[C@@H](F)CN3C)nc3c2C[C@@H](C)[C@H](c2c(F)c(N)cc(C)c2C(F)(F)F)C3)[C@@H](C)C1` (single isomer, unassigned) [Example 36b] registered an EC50 of 6 nM. Besides, at K-Ras G12C [2], the IC50 is under 10 nM. The half-life at 1 μM in data set [3] is over 9 h.
On K-Ras G12C [1], `C=CC(=O)N1CCN(c2nc(OC[C@@H]3C[C@@H](F)CN3C)nc3c2C[C@@H](CC)[C@H](c2c(F)c(N)cc(C)c2C(F)(F)F)C3)[C@@H](C)C1` (single isomer, unassigned) [Example 37a] displayed an EC50 of 4.5 nM. This molecule had a half-maximal inhibitory concentration (IC50) on K-Ras G12C [2] of under 10 nM. The molecule further showed a half-life at 1 μM in data set [3] of over 9 h.
In turn, `C=C(F)C(=O)N1CCN(c2nc(OC[C@@H]3C[C@@H](F)CN3C)nc3c2C[C@@H](C)[C@H](c2c(F)c(N)cc(C)c2C(F)(F)F)C3)C[C@@H]1CC#N` (single isomer, unassigned) [Example 38b] displayed a concentration for a half-maximal effect (EC50) on K-Ras G12C [1] of 3.2 nM. This molecule came in with an IC50 on K-Ras G12C [2] of under 10 nM. The molecule also had a half-life at 1 μM in data set [3] of over 9 h.
With `C=C(F)C(=O)N1CCN(c2nc(OC[C@@H]3C[C@@H](F)CN3C)nc3c2C[C@@H](C)[C@H](c2c(F)c(N)cc(C)c2C(F)(F)F)C3)C[C@H]1CC#N` (single isomer, unassigned) [Example 38c], the 50% effective concentration (EC50) on K-Ras G12C [1] was determined as 24 nM. In addition, the IC50 against K-Ras G12C [2] turned out to be 15 nM. The molecule further returned a half-life at 1 μM in data set [3] of 2.33 h.
As to `C=CC(=O)N1CCN(c2nc(OC[C@@H]3CCCN3C)nc3c2C[C@@H](C)[C@H](c2nc(N)ccc2C(F)(F)F)C3)[C@@H](C)C1` (single isomer, unassigned) [Example 41b], on K-Ras G12C [1], the response was half-maximal at 8.1 nM (EC50). On K-Ras G12C [2], the IC50 was under 10 nM. The same molecule showed a half-life at 1 μM in data set [3] of 3.33 h.
